From patent US20220031607A1, “INJECTION COMPOSITION CONTAINING FAB I INHIBITOR, AND PREPARATION METHOD THEREFOR” (CRYSTALGENOMICS, INC., priority 2019, published 2022)

Tests used:
[1] = Stability after dilution of prepared freeze-dried powder in physiological saline; type: physicochemical; conditions: 16% HP-beta-cyclodextrin solution, 60 °C, aqueous with cosolvent or surfactant or cyclodextrin, thermodynamic from solid; in 16% HP-beta-cyclodextrin; read-out: highest solubility
Description: Hydroxypropyl beta-cyclodextrin (HP-beta-cyclodextrin) was dissolved in distilled water for injection under stirring at room temperature and heated to 60° C., and the compound of formula 1 was added thereto, stirred and enclosed therein. The liquid injection was sterilized and filtered through 0.22 μm filter paper. The filtered injection solution was filled into a glass vial, cooled at −80° C., and freeze-dried to commercialize.

[2] = test system: Staphylococcus aureus 13B-382 (MRSA, clinical strain); test: Susceptibility test (MIC), clinical strain; type: cell-based; conditions: Staphylococcus aureus 13B-382, read-out: MIC
Description: (§1) For the compound of formula 1, pharmacokinetic/pharmacodynamic experiments were conducted using a mouse infection model. To this end, experiments were conducted with Staphylococcus aureus ATCC 29213 (MSSA, standard strain) and 13B-382 (MRSA, clinical strain). As a medium, Mueller-Hinton broth or Cation-adjusted Mueller-Hinton broth was used. For the susceptibility test (minimum inhibitory concentration (MIC)), the compound of formula 1 was used.

[3] = Solubility in excipients and solvents by HPLC analysis; type: physicochemical; conditions: for solubility at 1 h: thermodynamic from solid
Description: The excipients approved as pharmaceutical additives and solvents that can be used for future process studies were selected as shown in Table 1. A small amount of the compound of formula 1 was added and dissolved. The addition operation was repeated until completely dissolved. Finally, it was stirred at room temperature for one hour and then filtered to determine the concentration of the compound of formula 1 dissolved in the filtrate through HPLC analysis.
20 μL of each the test solution and the standard solution were tested according to a liquid chromatography method (HPLC) of general test methods of the Korean Pharmacopoeia under the following conditions, and the peak area of the main component of each solution was measured.
Operating Condition and Calculation
Detector: UV spectrophotometer (measurement wavelength 286 nm)
Column: Aegispak C18-L (4.6 mm×250 mm, 5 μm) column
Column temperature: 25° C.
Mobile phase: Acetonitrile:water=3:2

[4] = test system: Methicillin-susceptible Staphylococcus aureus strains; test: Drug susceptibility (MIC) of methicillin-susceptible clinical isolates; type: cell-based; conditions: Methicillin-susceptible, n = 103
Description: (§2) In order to verify the inhibitory effect of the compound of formula 1 on antibiotic-resistant strains, drug susceptibility was evaluated by treating the compound of formula 1 with Staphylococcus aureus phenotype isolated from each patient. In an in vitro test for antibiotic development, the most important result can be MIC90 (minimum inhibitory concentration required to inhibit the growth of 90% of the total bacterial population). […] Appelbaum at Hershey Hospital who is recognized for its authority in the field of anti-infection worldwide.

[5] = test system: Staphylococcus aureus ATCC 29213 (MSSA) and 13B-382 (MRSA); test: Pharmacokinetic/pharmacodynamic analysis in neutropenic mouse thigh infection model; type: in vivo, ICR mouse; conditions: oral administration
Description: as §1
An aseptic (Specific pathogen free, SPF) female, 6 weeks old (23˜27 g) ICR mouse (Orient Bio Inc, Gapyeong, Korea) was used, and the experiment was carried out in compliance with the regulations and procedures with the permission of the Ethics committees for animal experiments in accordance with the Animal Protection Act and the Laboratory Animal Act. […]
After 24 hours of drug administration, the mouse was euthanized with carbon dioxide gas and its thigh was separated, put in physiological saline, and cut finely with a homogenizer (Kinematica AG/Polytron®). […] The number of viable cells was counted and recorded. The results were expressed as log10 CFU/thigh, and the measurement limit of the number of viable cells in the laboratory was 1×10^2 CFU/thigh.
T/MIC was evaluated as an index to determine the effect of antibiotics in combination with the antimicrobial action and pharmacokinetic results according to the antimicrobial dosage and administration. […]

[6] = test system: Staphylococcus aureus ATCC 29213 (MSSA, standard strain); test: Susceptibility test (MIC), standard strain; type: cell-based; conditions: Staphylococcus aureus ATCC 29213; read-out: MIC
Description: as §1

[7] = test system: Methicillin-resistant Staphylococcus aureus (MRSA) strains; test: Drug susceptibility (MIC) of MRSA clinical isolates; type: cell-based; conditions: Methicillin-resistant, n = 100
Description: as §2

Solubility [1]: 3000 µg/mL
MIC [2]: 0.25 µg/mL
solubility at 1 h ([3]; Capryol 90, oil or lipid, in Capryol 90): 2900 µg/mL
solubility at 1 h ([3]; DMSO, organic solvent or mixture, in DMSO): 180000 µg/mL
solubility at 1 h ([3]; Labrasol, aqueous with cosolvent or surfactant or cyclodextrin, in Labrasol): > 20000 µg/mL
solubility at 1 h ([3]; PEG 300, organic solvent or mixture, in PEG 300): > 20000 µg/mL
solubility at 1 h ([3]; Peceol, oil or lipid, in Peceol): 4400 µg/mL
solubility at 1 h ([3]; Solutol HS 15, aqueous with cosolvent or surfactant or cyclodextrin, in Solutol HS 15): ≥ 10000 µg/mL
solubility at 1 h ([3]; Tween 20, aqueous with cosolvent or surfactant or cyclodextrin, in Tween 20): > 20000 µg/mL
solubility at 1 h ([3]; Tween 80, aqueous with cosolvent or surfactant or cyclodextrin, in Tween 80): ≥ 10000 µg/mL
solubility at 1 h ([3]; glycerol, organic solvent or mixture, in Glycerol): 260 µg/mL
Solubility ([3]; in Ethanol): 3650 µg/mL
Solubility ([3]; in Methanol): 6140 µg/mL
Solubility ([3]; in Propylene glycol): 3800 µg/mL
solubility at 1 h ([3]; methyl chloride, organic solvent or mixture, in Methyl chloride): ~60000 µg/mL
solubility at 1 h ([3]; oleic acid, oil or lipid, in Oleic acid): 2000 µg/mL
solubility at 1 h ([3]; pH 2.0 solution, pH 2, simulated gastric fluid, in pH 2.0): 440 µg/mL
solubility at 1 h ([3]; soybean oil, oil or lipid, in Soybean Oil): ~8500 µg/mL
MIC Range [4]: 0.06 to 1.0 µg/mL
MIC50 ([4]; Staphylococcus aureus, read-out: MIC50): 0.25 µg/mL
MIC90 ([4]; Staphylococcus aureus, read-out: MIC90): 0.25 µg/mL
T/MIC value at which more than 99.9% of bacteria were eradicated ([5]; 24 hours): ≥ 20%
MIC [6]: 0.25 µg/mL
MIC Range [7]: 0.06 to 1.0 µg/mL
MIC50 ([7]; Staphylococcus aureus, MRSA, read-out: MIC50): 0.25 µg/mL
MIC90 ([7]; Staphylococcus aureus, MRSA, read-out: MIC90): 0.25 µg/mL
SMILES: Cc1c(N)cccc1Cn1ccc(OCCc2cccs2)cc1=O [Compound of formula 1, 1-(3-amino-2-methylbenzyl)-4-(2-thiophen-2-yl-ethoxy)-1H-pyridin-2-one]
bacteria eradicated ([5]; T/MIC value approximately 20% or higher): more than 99.9%
